For assay [1], the system named is Tyrosine-protein kinase ABL1 (Homo sapiens), P00519 [F317I].
The target in assay [2] is Aurora kinase B (Homo sapiens) (UniProt Q96GD4).
Assay [3] relates to Serine/threonine-protein kinase B-raf (Homo sapiens), P15056 [V600E].
Assay [4] concerns the target Tyrosine-protein kinase BTK (Homo sapiens) (UniProt Q06187).
The target in assay [5] is Cyclin-dependent kinase 11B (Homo sapiens) (UniProt P21127).
Assay [6] deals with Casein kinase I isoform alpha (Homo sapiens) (UniProt P48729).
The subject of assay [7] is Epidermal growth factor receptor (Homo sapiens), P00533 [UNDEFINED MUTATION].
Assay [8] concerns the target T1, Inhibitor of nuclear factor kappa-B kinase subunit beta (Homo sapiens) (UniProt O14920).
T1 sequence (whole entry): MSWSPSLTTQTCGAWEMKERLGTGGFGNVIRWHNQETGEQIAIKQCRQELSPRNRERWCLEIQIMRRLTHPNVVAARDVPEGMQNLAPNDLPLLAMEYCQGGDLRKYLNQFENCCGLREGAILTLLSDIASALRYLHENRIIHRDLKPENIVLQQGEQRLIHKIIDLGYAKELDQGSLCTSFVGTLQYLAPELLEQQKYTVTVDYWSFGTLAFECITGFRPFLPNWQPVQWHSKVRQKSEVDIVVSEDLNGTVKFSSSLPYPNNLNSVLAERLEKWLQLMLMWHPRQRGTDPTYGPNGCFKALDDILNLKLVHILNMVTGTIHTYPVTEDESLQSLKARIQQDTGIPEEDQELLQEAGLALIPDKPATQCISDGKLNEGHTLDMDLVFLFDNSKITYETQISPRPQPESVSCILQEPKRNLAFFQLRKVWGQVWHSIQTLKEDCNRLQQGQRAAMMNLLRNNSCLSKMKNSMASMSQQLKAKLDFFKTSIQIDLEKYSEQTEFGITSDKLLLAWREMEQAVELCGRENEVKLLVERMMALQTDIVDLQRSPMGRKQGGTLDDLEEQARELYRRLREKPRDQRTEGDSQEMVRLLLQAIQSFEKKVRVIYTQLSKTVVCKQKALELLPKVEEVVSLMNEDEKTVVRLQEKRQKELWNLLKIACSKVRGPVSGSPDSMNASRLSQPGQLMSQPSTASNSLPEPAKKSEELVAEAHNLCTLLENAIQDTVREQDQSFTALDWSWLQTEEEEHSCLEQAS

The target in assay [9] is T2, Tyrosine-protein kinase JAK3 (Homo sapiens) (UniProt P52333).
T2 sequence (whole entry): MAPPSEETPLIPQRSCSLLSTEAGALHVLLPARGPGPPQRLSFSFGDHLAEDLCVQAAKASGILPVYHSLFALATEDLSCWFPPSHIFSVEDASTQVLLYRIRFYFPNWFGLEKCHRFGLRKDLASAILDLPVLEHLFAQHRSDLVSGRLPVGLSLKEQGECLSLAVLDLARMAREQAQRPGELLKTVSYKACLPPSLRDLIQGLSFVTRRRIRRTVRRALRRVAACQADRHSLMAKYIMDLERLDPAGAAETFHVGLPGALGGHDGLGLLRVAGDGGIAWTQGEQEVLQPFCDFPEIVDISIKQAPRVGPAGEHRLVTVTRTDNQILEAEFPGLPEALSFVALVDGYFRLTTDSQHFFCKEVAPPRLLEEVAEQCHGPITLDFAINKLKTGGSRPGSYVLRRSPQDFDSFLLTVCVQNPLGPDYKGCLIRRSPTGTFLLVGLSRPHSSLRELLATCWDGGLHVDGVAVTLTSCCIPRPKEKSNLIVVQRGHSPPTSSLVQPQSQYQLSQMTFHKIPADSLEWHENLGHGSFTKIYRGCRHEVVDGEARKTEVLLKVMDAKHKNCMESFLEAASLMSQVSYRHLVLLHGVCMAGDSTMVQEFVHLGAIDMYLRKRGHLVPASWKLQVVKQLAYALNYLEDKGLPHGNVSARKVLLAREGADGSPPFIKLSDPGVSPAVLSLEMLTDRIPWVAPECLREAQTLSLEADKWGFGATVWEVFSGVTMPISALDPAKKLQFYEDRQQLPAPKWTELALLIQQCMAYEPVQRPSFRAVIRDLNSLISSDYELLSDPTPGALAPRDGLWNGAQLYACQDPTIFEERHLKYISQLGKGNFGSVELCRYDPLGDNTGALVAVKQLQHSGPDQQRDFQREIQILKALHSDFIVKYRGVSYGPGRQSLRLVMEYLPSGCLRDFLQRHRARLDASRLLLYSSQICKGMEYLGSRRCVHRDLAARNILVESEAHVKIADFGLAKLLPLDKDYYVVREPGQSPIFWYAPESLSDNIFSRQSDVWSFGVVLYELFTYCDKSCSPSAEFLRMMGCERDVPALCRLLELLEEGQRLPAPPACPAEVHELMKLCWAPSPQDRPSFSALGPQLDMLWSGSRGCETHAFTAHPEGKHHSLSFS

Assay [10] has as its target Mitogen-activated protein kinase kinase kinase 15 (Homo sapiens) (UniProt Q6ZN16).
Assay [11] addresses Mitogen-activated protein kinase kinase kinase kinase 5 (Homo sapiens) (UniProt Q9Y4K4).
Assay [12] deals with MAP kinase-activated protein kinase 5 (Homo sapiens) (UniProt Q8IW41).
Assay [13] concerns the target Phosphorylase b kinase gamma catalytic chain, skeletal muscle/heart isoform (Homo sapiens) (UniProt Q16816).
The target of assay [14] is Phosphorylase b kinase regulatory subunit alpha, liver isoform (Homo sapiens) (UniProt P46019).
Assay [15] has as its target SRSF protein kinase 1 (Homo sapiens) (UniProt Q96SB4).
In assay [16] the target is Serine/threonine-protein kinase 35 (Homo sapiens) (UniProt Q8TDR2).
The target of assay [17] is Serine/threonine-protein kinase 36 (Homo sapiens) (UniProt Q9NRP7).
Chain of Serine/threonine-protein kinase 36 (Homo sapiens) (Q9NRP7 whole entry): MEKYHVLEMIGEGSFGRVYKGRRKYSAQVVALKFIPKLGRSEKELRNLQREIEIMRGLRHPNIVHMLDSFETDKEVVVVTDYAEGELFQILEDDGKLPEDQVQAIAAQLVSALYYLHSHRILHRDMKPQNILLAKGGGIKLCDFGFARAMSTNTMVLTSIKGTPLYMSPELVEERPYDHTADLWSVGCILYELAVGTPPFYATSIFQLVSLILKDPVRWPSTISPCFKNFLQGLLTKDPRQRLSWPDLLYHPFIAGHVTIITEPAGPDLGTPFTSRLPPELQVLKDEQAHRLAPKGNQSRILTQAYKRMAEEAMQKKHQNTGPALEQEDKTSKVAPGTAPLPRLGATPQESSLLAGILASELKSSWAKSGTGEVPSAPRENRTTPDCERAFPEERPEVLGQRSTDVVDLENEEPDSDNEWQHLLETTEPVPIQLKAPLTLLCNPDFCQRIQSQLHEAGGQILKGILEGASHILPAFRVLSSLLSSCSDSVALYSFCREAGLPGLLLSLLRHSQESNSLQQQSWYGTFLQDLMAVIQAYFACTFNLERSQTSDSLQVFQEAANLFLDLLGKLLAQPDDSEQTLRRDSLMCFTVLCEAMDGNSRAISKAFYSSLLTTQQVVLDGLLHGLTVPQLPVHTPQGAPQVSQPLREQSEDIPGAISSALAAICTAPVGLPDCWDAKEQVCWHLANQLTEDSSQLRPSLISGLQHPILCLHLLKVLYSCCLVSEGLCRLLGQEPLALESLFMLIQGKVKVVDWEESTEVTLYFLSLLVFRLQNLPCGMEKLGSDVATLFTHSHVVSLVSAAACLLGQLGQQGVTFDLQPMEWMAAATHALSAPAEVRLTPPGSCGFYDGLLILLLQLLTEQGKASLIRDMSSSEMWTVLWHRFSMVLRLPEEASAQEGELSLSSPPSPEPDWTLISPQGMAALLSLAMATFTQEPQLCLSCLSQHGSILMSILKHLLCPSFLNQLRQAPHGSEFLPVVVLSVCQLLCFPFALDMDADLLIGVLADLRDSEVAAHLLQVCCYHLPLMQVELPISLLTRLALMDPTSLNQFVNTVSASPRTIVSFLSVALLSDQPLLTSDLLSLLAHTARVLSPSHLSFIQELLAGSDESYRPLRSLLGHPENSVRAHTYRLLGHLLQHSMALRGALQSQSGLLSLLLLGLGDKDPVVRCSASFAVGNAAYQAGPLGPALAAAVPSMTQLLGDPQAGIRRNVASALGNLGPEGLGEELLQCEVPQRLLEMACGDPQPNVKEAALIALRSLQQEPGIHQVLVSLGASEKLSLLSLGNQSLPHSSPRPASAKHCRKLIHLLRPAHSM
Assay [18] concerns the target Testis-specific serine/threonine-protein kinase 3 (Homo sapiens) (UniProt Q96PN8).
The target in assay [19] is 5-hydroxytryptamine receptor 5A (Homo sapiens) (UniProt P47898). As to conditions: Compound concentration 10.0 uM.
Assay [20] deals with D(4) dopamine receptor (Homo sapiens) (UniProt P21917). The following applies: Compound concentration 10.0 uM.
Setting [21] is: Compound concentration 100.0 nM.
Setting [22] is: Compound concentration 1000.0 nM.

SMILES strings stand for the structures.

Residual activity and inhibition data for two compounds are collected here from ChEMBL document CHEMBL4507299, “Data for DCP probe PF-04554878” (2021).

Chain of Epidermal growth factor receptor (Homo sapiens), P00533 [UNDEFINED MUTATION] (P00533 whole entry, looked up, change not shown): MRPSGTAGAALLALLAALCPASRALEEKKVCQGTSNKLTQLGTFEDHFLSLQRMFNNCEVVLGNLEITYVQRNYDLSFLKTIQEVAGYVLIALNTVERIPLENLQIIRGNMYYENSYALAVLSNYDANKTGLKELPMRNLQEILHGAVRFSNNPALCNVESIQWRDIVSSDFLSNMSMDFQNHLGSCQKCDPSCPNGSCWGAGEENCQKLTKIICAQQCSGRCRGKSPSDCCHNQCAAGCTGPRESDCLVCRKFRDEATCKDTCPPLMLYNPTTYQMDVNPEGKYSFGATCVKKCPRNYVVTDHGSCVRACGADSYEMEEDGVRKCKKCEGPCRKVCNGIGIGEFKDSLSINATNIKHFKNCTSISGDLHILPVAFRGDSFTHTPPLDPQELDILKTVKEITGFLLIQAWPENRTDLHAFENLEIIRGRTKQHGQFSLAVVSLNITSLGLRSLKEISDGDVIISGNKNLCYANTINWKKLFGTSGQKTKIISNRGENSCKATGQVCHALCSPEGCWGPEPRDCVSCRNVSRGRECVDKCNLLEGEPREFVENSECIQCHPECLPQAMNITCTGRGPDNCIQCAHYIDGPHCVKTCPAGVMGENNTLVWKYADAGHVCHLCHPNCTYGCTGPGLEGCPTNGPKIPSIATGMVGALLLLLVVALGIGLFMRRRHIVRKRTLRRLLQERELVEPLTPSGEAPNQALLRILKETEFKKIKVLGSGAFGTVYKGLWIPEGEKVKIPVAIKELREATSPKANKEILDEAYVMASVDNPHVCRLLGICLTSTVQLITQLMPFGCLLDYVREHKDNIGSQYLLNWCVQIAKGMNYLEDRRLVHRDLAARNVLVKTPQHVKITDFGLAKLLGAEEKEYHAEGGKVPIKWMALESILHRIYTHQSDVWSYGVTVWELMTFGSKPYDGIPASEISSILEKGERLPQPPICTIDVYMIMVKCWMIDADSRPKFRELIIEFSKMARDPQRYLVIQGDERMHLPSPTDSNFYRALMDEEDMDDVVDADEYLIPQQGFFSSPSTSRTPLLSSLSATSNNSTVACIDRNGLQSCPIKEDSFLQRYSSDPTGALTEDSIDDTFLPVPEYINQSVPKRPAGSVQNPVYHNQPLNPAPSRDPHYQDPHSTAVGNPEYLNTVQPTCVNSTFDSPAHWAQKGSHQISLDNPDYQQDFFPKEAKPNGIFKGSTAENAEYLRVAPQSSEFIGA
Chain of Cyclin-dependent kinase 11B (Homo sapiens) (P21127 whole entry, canonical isoform): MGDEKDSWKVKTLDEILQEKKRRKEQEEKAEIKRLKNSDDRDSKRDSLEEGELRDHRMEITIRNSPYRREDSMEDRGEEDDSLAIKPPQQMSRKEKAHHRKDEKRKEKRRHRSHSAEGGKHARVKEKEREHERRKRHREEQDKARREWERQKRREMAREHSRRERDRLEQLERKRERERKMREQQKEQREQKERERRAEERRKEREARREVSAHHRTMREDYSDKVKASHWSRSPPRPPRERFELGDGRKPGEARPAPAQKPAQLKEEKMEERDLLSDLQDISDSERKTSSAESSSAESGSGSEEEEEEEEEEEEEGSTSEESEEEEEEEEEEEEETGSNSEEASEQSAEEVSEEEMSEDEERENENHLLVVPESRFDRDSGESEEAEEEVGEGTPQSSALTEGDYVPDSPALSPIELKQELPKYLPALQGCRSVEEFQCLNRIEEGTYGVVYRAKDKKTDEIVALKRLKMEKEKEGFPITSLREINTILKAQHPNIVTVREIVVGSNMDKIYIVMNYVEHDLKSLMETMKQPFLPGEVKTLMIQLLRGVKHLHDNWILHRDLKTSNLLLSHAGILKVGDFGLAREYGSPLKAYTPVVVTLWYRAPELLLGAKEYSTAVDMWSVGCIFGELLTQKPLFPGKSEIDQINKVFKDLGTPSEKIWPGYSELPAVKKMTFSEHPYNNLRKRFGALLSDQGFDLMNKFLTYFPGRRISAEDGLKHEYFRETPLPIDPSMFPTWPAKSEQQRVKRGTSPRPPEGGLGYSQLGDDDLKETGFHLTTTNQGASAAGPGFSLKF
Chain of Mitogen-activated protein kinase kinase kinase 15 (Homo sapiens) (Q6ZN16 whole entry): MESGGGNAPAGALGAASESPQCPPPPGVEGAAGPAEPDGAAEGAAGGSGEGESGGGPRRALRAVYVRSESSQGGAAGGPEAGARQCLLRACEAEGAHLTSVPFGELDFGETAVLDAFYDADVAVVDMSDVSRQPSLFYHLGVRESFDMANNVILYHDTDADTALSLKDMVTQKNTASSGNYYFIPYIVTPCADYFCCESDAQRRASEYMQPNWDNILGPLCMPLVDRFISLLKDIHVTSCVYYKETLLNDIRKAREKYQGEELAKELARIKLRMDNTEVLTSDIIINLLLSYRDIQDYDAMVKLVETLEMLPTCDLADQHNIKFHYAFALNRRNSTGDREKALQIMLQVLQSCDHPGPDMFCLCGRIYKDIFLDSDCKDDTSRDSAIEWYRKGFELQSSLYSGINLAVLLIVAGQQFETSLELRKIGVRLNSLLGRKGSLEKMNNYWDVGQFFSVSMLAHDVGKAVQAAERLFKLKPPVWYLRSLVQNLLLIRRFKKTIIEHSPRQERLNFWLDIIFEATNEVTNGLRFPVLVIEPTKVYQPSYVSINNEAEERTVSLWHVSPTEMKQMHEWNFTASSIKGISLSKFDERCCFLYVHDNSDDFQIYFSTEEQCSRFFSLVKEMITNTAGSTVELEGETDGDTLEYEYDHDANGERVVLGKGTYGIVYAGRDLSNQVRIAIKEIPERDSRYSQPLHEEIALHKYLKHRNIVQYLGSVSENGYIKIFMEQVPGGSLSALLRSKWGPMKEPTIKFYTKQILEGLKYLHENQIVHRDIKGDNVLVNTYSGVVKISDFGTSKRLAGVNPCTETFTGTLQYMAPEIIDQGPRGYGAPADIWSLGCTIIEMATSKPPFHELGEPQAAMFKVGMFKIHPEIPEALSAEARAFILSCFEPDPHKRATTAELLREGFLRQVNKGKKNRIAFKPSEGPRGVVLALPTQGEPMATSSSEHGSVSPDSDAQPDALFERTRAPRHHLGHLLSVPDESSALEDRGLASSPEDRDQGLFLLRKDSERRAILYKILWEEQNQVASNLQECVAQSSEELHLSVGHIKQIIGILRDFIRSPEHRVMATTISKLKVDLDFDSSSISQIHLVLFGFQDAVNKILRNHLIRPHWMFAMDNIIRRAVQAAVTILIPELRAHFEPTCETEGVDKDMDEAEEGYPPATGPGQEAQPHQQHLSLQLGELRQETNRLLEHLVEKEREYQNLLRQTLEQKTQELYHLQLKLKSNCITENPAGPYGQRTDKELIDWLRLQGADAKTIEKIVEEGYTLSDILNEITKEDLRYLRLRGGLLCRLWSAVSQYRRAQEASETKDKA
Chain of Aurora kinase B (Homo sapiens) (Q96GD4 whole entry): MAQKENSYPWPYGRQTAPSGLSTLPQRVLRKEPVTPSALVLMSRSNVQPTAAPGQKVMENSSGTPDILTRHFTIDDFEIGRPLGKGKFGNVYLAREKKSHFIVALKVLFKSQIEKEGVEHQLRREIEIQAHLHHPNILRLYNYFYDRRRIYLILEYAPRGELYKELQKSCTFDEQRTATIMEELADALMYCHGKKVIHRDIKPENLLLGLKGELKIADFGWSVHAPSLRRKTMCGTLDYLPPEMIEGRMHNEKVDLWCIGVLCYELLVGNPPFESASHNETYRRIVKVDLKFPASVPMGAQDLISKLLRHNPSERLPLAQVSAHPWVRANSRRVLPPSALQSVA

For the compound `CNC(=O)c1ccc(Nc2ncc(C(F)(F)F)c(NCc3nccnc3N(C)S(C)(=O)=O)n2)cc1` [DEFACTINIB], the residual activity in assay [1] (setting [21]) was 100%; in [2] (setting [21]), 73%; in [3] (setting [21]), 100%; in assay [4] (setting [21]), 83%; in assay [5] (setting [21]), 95%; in assay [6] (setting [21]), 94%. Besides, the residual activity in [7] (setting [21]) is 93%; in [8] (setting [21]) it was 100%; in assay [9] (setting [21]) it was 8.2%; in assay [10] (setting [21]), 95%; in assay [11] (setting [21]) it was 100%; in [12] (setting [21]) it was 76%. For the same compound, the residual activity was 100% in assay [13] (setting [21]); 75% in assay [14] (setting [21]); 51% in [15] (setting [21]); 100% in assay [16] (setting [21]); 89% in assay [17] (setting [21]); 77% in assay [18] (setting [21]). Also, the values for the inhibition in assay [19] and in assay [20] were -1.91% and 7.8%, respectively.

For `CN(c1ccnc(CNc2nc(Nc3ccc4c(c3)CC(=O)N4)ncc2C(F)(F)F)n1)S(C)(=O)=O` [PF-00911705], the residual activity in assay [1] (setting [22]) was 79%; in [2] (setting [22]), 9.9%; in assay [3] (setting [22]) it was 68%; in assay [4] (setting [22]), 63%; in [5] (setting [22]), 91%; in assay [6] (setting [22]) it was 81%. For the same compound, the residual activity in assay [7] (setting [22]) was 83%; in assay [8] (setting [22]), 78%; in assay [9] (setting [22]), 1.9%; in assay [10] (setting [22]), 92%; in assay [11] (setting [22]), 72%; in [12] (setting [22]) it was 94%. Also, the residual activity in assay [13] (setting [22]) was 76%; in [14] (setting [22]), 63%; in assay [15] (setting [22]), 17%; in assay [16] (setting [22]), 86%; in assay [17] (setting [22]), 87%; in assay [18] (setting [22]) it was 80%. The figures for the inhibition in assay [19] and in [20] were 1.82% and 2.34%, respectively.
